Source: patent US20240384321A1, “Microfluidic chip and use thereof for continuous monitoring of bacterium intended for motion, growth and morphology detection” (National Health Research Institutes, priority 2023, published 2024)

Tests used:
[1] = tested on: E. coli GFP; test: Antibiotic susceptibility of bulky bacteria on agar plates (E-test); type: cell-based, Escherichia coli (ATCC 25922 GFP)
Experimental: (§1) Escherichia coli (E. coli) (ATCC 25922 GFP™) was chosen as a model bacterium. Ampicillin and gentamicin were chosen as model antibiotic drugs. The operational parameters were optimized to isolate 0 or 1 bacterium in each chamber. For the determination of minimum inhibitory concentration (MIC), fluorescence intensity of the sample was measured via inverted fluorescence microscope at 2 hours intervals, during 6 hours of incubation in a temperature-controlled chamber at 37° C. The time-dependent morpho-structural variabilities of bacterium were characterized by a software. […] 0.25 μg/ml GM inhibits bulky E. coli GFP growth on agar plates and microfluidic chip. On the contrary, 0.1 μg/ml GM inhibits growth of ˜90% E. coli GFP in the microfluidic chip, and resistant subpopulation continue growing after 4 h. The present invention shed light on breakthrough development in bacterial resistance research and rapid drug testing applications.
The multi-parametric motion-analysis incorporating line length, elongation ratio, circularity, line speed, path speed and intensity are found useful for the identification of resistance and susceptibility of E. coli in 4 hours. […] However, resistant subpopulation continues growing after 4 h.

[2] = tested on: E. coli GFP; test: Antibiotic susceptibility testing in the microfluidic chip (fluorescence, MIC determination); type: cell-based, Escherichia coli (ATCC 25922 GFP)
Experimental: as §1, with “applications. […]” for “applications.”
Step 3, The morpho-structural changes and Dynamic phenotypic analysis of bacterium were evaluated by microscopy methods. […] In this and the following examples, E. coli is monitored during the first 6 hours and after 21 hours of incubation at 37° C. inside a temperature-controlled chamber placed on the microscope-stage. […]

gentamicin [GM]
concentration that inhibits bulky E. coli GFP growth (MIC) [1]: 0.25 µg/mL
share of E. coli GFP whose growth is inhibited ([2]; 0.1 μg/ml GM, resistant subpopulation continues growing after 4 h): ~90%
concentration that inhibits bulky E. coli GFP growth (MIC) ([2]; bulky bacteria, 37° C., 6 hours incubation): 0.25 µg/mL
